The values that follow come from PubChem BioAssay AID1259407 (Chemical Carcinogenesis Research Information System (CCRIS), 2018).

This series has as its system CCRIS mutagenicity, Ames/micronucleus/aberration tests. Nature of the series: CCRIS mutagenicity studies.
Where [1] appears, read: Test System: AMES SALMONELLA TYPHIMURIUM, Strain/Indicator: TA98, Metabolic Activation: RAT, LIVER, S-9, AROCLOR 1254, Method: STANDARD PLATE.
Where [2] appears, read: Test System: AMES SALMONELLA TYPHIMURIUM, Strain/Indicator: TA98, Metabolic Activation: NONE, Method: PREINCUBATION
[3] abbreviates: Test System: AMES SALMONELLA TYPHIMURIUM, Strain/Indicator: TA100, Metabolic Activation: NONE, Method: PREINCUBATION

Calls of active or inactive are those of the source. How the calls were made is not given here.

In the case of `Cc1c2ccncc2c(C)c2c1[nH]c1ccccc12`, the mutagenic call under setting [1] was “active; positive”; the mutagenic call (Test System: AMES SALMONELLA TYPHIMURIUM, Strain/Indicator: TA102, Metabolic Activation: NONE, Method: STANDARD PLATE) was “active; positive”; the mutagenic call (Test System: CHINESE HAMSTER V-79, Strain/Indicator: V-79 (HPRT)/6-THIOGUANINE, Metabolic Activation: NONE) is “inactive; negative”; the mutagenic call (Test System: E. COLI, Strain/Indicator: WP2 TM9, Metabolic Activation: NONE, Method: STANDARD PLATE) was “inactive; negative”; the mutagenic call (Test System: MOUSE LYMPHOMA, Strain/Indicator: L5178Y (HPRT)/6-THIOGUANINE, Metabolic Activation: NONE, Method: FLUCTUATION TEST) was “inactive; negative”; the mutagenic call (Test System: MOUSE LYMPHOMA, Strain/Indicator: L5178Y (TK+/TK-), Metabolic Activation: NONE, Method: FLUCTUATION TEST) was “active; positive”. Further, the mutagenic call (Test System: MOUSE LYMPHOMA, Strain/Indicator: L5178Y (TK+/TK-), Metabolic Activation: NONE, Method: SUSPENSION/PLATE) was “active; positive”; the mutagenic call (Test System: Mouse lymphoma, Strain/Indicator: L5178Y (tk+/tk-), Metabolic Activation: None, Method: Suspension/plate) is “active; positive”; the mutagenic call (Test System: Mouse lymphoma, Strain/Indicator: L5178Y (tk+/tk-), Metabolic Activation: Rat, Liver, S-9, Aroclor 1254, Method: Suspension/plate) was “active; positive”.

As for `CC(Br)C(Br)CCl` (stereo not drawn), the mutagenic call is “active; positive” (Test System: AMES SALMONELLA TYPHIMURIUM, Strain/Indicator: TA100, Metabolic Activation: RAT, LIVER, MICROSOMES, PHENOBARBITAL, Method: PREINCUBATION) and “active; positive” (Test System: AMES SALMONELLA TYPHIMURIUM, Strain/Indicator: TA100, Metabolic Activation: RAT, LIVER, MICROSOMES, Method: PREINCUBATION).

In the case of `Clc1cccc2cccnc12`, the mutagenic call (Test System: AMES SALMONELLA TYPHIMURIUM, Strain/Indicator: TA100, Metabolic Activation: RAT, LIVER, S-9, PHENOBARBITAL AND 5,6-BENZOFLAVONE, Method: PREINCUBATION) was “active; positive” and the mutagenic call (Test System: AMES SALMONELLA TYPHIMURIUM, Strain/Indicator: TA100, Metabolic Activation: S-9, Method: PREINCUBATION) was “inactive; negative”.

As for `CCCCC(CC)CO` (stereo not drawn), the mutagenic call is, setting by setting: (Test System: AMES SALMONELLA TYPHIMURIUM, Strain/Indicator: TA98, Metabolic Activation: HAMSTER, LIVER, S-9, AROCLOR 1254 (10%), Method: PREINCUBATION) “inactive; negative”; under setting [2], “inactive; negative”; (Test System: AMES SALMONELLA TYPHIMURIUM, Strain/Indicator: TA98, Metabolic Activation: RAT LIVER S-9, PHENOBARBITAL AND BETA-NAPHTHOFLAVONE, Method: PREINCUBATION) “inactive; negative”; (Test System: AMES SALMONELLA TYPHIMURIUM, Strain/Indicator: TA98, Metabolic Activation: RAT, LIVER, S-9, AROCLOR 1254 (10%), Method: PREINCUBATION) “inactive; negative”; (Test System: AMES SALMONELLA TYPHIMURIUM, Strain/Indicator: TA98, Metabolic Activation: RAT, LIVER, S-9, KC 500, Method: PREINCUBATION) “inactive; negative”; (Test System: AMES SALMONELLA TYPHIMURIUM, Strain/Indicator: TA100, Metabolic Activation: HAMSTER, LIVER, S-9, AROCLOR 1254 (10%), Method: PREINCUBATION) “inactive; negative”. Besides, the mutagenic call is “inactive; negative” under setting [3]; “inactive; negative” (Test System: AMES SALMONELLA TYPHIMURIUM, Strain/Indicator: TA100, Metabolic Activation: RAT LIVER S-9, PHENOBARBITAL AND BETA-NAPHTHOFLAVONE, Method: PREINCUBATION); “inactive; negative” (Test System: AMES SALMONELLA TYPHIMURIUM, Strain/Indicator: TA100, Metabolic Activation: RAT, LIVER, S-9, AROCLOR 1254 (10%), Method: PREINCUBATION); “inactive; negative” (Test System: AMES SALMONELLA TYPHIMURIUM, Strain/Indicator: TA100, Metabolic Activation: RAT, LIVER, S-9, KC 500, Method: PREINCUBATION); “inactive; negative” (Test System: AMES SALMONELLA TYPHIMURIUM, Strain/Indicator: TA1535, Metabolic Activation: HAMSTER, LIVER, S-9, AROCLOR 1254 (10%), Method: PREINCUBATION); “inactive; negative” (Test System: AMES SALMONELLA TYPHIMURIUM, Strain/Indicator: TA1535, Metabolic Activation: NONE, Method: PREINCUBATION). Moreover, the mutagenic call reads like this: (Test System: AMES SALMONELLA TYPHIMURIUM, Strain/Indicator: TA1535, Metabolic Activation: RAT LIVER S-9, PHENOBARBITAL AND BETA-NAPHTHOFLAVONE, Method: PREINCUBATION) “inactive; negative”; (Test System: AMES SALMONELLA TYPHIMURIUM, Strain/Indicator: TA1535, Metabolic Activation: RAT, LIVER, S-9, AROCLOR 1254 (10%), Method: PREINCUBATION) “inactive; negative”; (Test System: AMES SALMONELLA TYPHIMURIUM, Strain/Indicator: TA1535, Metabolic Activation: RAT, LIVER, S-9, KC 500, Method: PREINCUBATION) “inactive; negative”; (Test System: AMES SALMONELLA TYPHIMURIUM, Strain/Indicator: TA1537, Metabolic Activation: HAMSTER, LIVER, S-9, AROCLOR 1254 (10%), Method: PREINCUBATION) “inactive; negative”; (Test System: AMES SALMONELLA TYPHIMURIUM, Strain/Indicator: TA1537, Metabolic Activation: NONE, Method: PREINCUBATION) “inactive; negative”; (Test System: AMES SALMONELLA TYPHIMURIUM, Strain/Indicator: TA1537, Metabolic Activation: RAT LIVER S-9, PHENOBARBITAL AND BETA-NAPHTHOFLAVONE, Method: PREINCUBATION) “inactive; negative”. For the same molecule, the mutagenic call is, setting by setting: (Test System: AMES SALMONELLA TYPHIMURIUM, Strain/Indicator: TA1537, Metabolic Activation: RAT, LIVER, S-9, AROCLOR 1254 (10%), Method: PREINCUBATION) “inactive; negative”; (Test System: AMES SALMONELLA TYPHIMURIUM, Strain/Indicator: TA1537, Metabolic Activation: RAT, LIVER, S-9, KC 500, Method: PREINCUBATION) “inactive; negative”; (Test System: AMES SALMONELLA TYPHIMURIUM, Strain/Indicator: TA1538, Metabolic Activation: NONE, Method: PREINCUBATION) “inactive; negative”; (Test System: AMES SALMONELLA TYPHIMURIUM, Strain/Indicator: TA1538, Metabolic Activation: RAT, LIVER, S-9, KC 500, Method: PREINCUBATION) “inactive; negative”; (Test System: E. COLI, Strain/Indicator: WP2 UVRA, Metabolic Activation: NONE, Method: PREINCUBATION) “inactive; negative”; (Test System: E. COLI, Strain/Indicator: WP2UVRA, Metabolic Activation: NONE, Method: PREINCUBATION) “inactive; negative”. Moreover, the mutagenic call is “inactive; negative” (Test System: E. COLI, Strain/Indicator: WP2UVRA, Metabolic Activation: RAT LIVER S-9, PHENOBARBITAL AND BETA-NAPHTHOFLAVONE, Method: PREINCUBATION) and “inactive; negative” (Test System: E. COLI, Strain/Indicator: WP2 UVRA, Metabolic Activation: RAT, LIVER, S-9, KC 500, Method: PREINCUBATION).

On to `CC(C)(C)NCC(O)COc1cccc2c1CC(O)C(O)C2` (stereo not drawn), for which the mutagenic call was “inactive; negative” (Test System: AMES SALMONELLA TYPHIMURIUM, Strain/Indicator: TA98, Metabolic Activation: NONE, Method: STANDARD PLATE); “inactive; negative” under setting [1]; “inactive; negative” (Test System: AMES SALMONELLA TYPHIMURIUM, Strain/Indicator: TA100, Metabolic Activation: NONE, Method: STANDARD PLATE); “inactive; negative” (Test System: AMES SALMONELLA TYPHIMURIUM, Strain/Indicator: TA100, Metabolic Activation: RAT, LIVER, S-9, AROCLOR 1254, Method: STANDARD PLATE); “inactive; negative” (Test System: UDS HUMAN HEPATOCYTES, Strain/Indicator: THY INCORP, Metabolic Activation: NONE, Method: AUTORADIOGRAPHY); “inactive; negative” (Test System: UDS RAT HEPATOCYTES, Strain/Indicator: THY INCORP, Metabolic Activation: NONE, Method: AUTORADIOGRAPHY).

For the molecule `N[C@@H](CS/C=C/CCl)C(=O)O`, the mutagenic call is, setting by setting: under setting [2], “inactive; negative”; under setting [3], “inactive; negative”; (Test System: AMES SALMONELLA TYPHIMURIUM, Strain/Indicator: TA2638, Metabolic Activation: NONE, Method: PREINCUBATION) “inactive; negative”.
